Data set [1] concerns Aspergillus oryzae. Kind of data set: Antimicrobial activity against Aspergillus oryzae MTCC 3567 assessed as diameter of growth inhibition zone at 500 ug/ml after 72 hr by cup-plate method. The class given is functional. The following applies: MTCC 3567, 72 h, read-out: DIZ.
The subject of data set [2] is Escherichia coli. In words: Antimicrobial activity against Escherichia coli MTCC 723 assessed as diameter of growth inhibition zone at 500 ug/ml after 24 hr by cup-plate method. The class given is functional. As to conditions: MTCC 723, 24 h, read-out: DIZ; call rule not given here.
Data set [3] relates to Aspergillus flavus. In words: Antimicrobial activity against Aspergillus flavus MTCC 1973 assessed as diameter of growth inhibition zone at 500 ug/ml after 72 hr by cup-plate method. The following applies: MTCC 1973, 72 h, read-out: DIZ. The class given is functional.
For data set [4], the system named is Pseudomonas aeruginosa. Kind of data set: Antimicrobial activity against Pseudomonas aeruginosa MTCC 1688 assessed as diameter of growth inhibition zone at 500 ug/ml after 24 hr by cup-plate method. The class given is functional. The following applies: MTCC 1688, 24 h, read-out: DIZ.
The subject of data set [5] is Aspergillus niger. In words: Antimicrobial activity against Aspergillus niger MTCC 281 assessed as diameter of growth inhibition zone at 500 ug/ml after 72 hr by cup-plate method. The class given is functional. As to conditions: MTCC 281, 72 h, read-out: DIZ.
For data set [6], the system named is Klebsiella pneumoniae. Kind of data set: Antimicrobial activity against Klebsiella pneumoniae NCTC 13368 assessed as diameter of growth inhibition zone at 500 ug/ml after 24 hr by cup-plate method. As to conditions: NCTC 13368, 24 h, read-out: DIZ. The class given is functional.
Data set [7] has as its system Staphylococcus aureus. Kind of data set: Antimicrobial activity against Staphylococcus aureus ATCC 29513 assessed as diameter of growth inhibition zone at 500 ug/ml after 24 hr by cup-plate method. The class given is functional. As to conditions: ATCC 29513, 24 h, read-out: DIZ.
The subject of data set [8] is Aspergillus terreus. Kind of data set: Antimicrobial activity against Aspergillus terreus MTCC 1782 assessed as diameter of growth inhibition zone at 500 ug/ml after 72 hr by cup-plate method. The class given is functional. The following applies: MTCC 1782, 72 h, read-out: DIZ.
Data set [9] is described as follows: Metal chelating activity of the compound assessed as inhibition of ferrozine Fe2+ complex formation at 25 to 100 ug/ml after 10 min by spectrophotometric analysis. The class given is physicochemical.

Each structure is given as a SMILES string.

In the case of `O=c1[nH]cnc2nc(-c3ccc(Cl)cc3)cc(-c3c(-c4ccccc4)[nH]c4ccc(Cl)cc34)c12`, the zone of inhibition at 500 µg/mL in data set [1] is 14 mm; in data set [2] it was 11 mm; in [3] it was 3 mm; in data set [4] it was 13 mm; in [5], 10 mm; in data set [6], 11 mm. Also, the zone of inhibition at 500 µg/mL was determined as 11 mm in data set [7] and 8 mm in data set [8]. Besides, in data set [9], the “inhibition (INH)” value is “Active”.
With `Cc1ccc(-c2cc(-c3c(-c4ccccc4)[nH]c4ccc(C)cc34)c3c(N)n[nH]c3n2)cc1`, the zone of inhibition at 500 µg/mL in [1] is 3 mm; in data set [2], 10 mm; in data set [3], 11 mm; in [4], 6 mm; in data set [5], 10 mm; in [6] it was 5 mm. The zone of inhibition at 500 µg/mL in data set [7] is 11 mm; in [8], 9 mm.
For `Cc1ccc2[nH]c(-c3ccccc3)c(-c3cc(-c4ccc(Cl)cc4)nc4ncnc(N)c34)c2c1`, the zone of inhibition at 500 µg/mL came out at 8 mm in data set [1]; 6 mm in data set [2]; 11 mm in data set [3]; 11 mm in data set [4]; 10 mm in data set [5]; 10 mm in data set [6]. Besides, the zone of inhibition at 500 µg/mL came to 8 mm in [7] and 5 mm in [8].
Turning to `Cc1ccc(-c2cc(-c3c(-c4ccccc4)[nH]c4ccccc34)c3c(N)n[nH]c3n2)cc1`, the zone of inhibition at 500 µg/mL in [1] came out at 10 mm; in data set [2], 10 mm; in data set [3], 8 mm; in data set [4], 9 mm; in data set [5] it was 5 mm; in data set [6], 9 mm. For the same compound, the zone of inhibition at 500 µg/mL worked out at 11 mm in data set [7] and 2 mm in data set [8].
Regarding `Cc1ccc2[nH]c(-c3ccccc3)c(-c3cc(-c4ccc(Cl)cc4)nc4[nH]nc(N)c34)c2c1`, the zone of inhibition at 500 µg/mL was 8 mm in data set [1]; 7 mm in data set [2]; 11 mm in [3]; 8 mm in [4]; 10 mm in data set [5]; 10 mm in [6]. Besides, the zone of inhibition at 500 µg/mL in [7] was 10 mm; in [8], 2 mm.
As for `Nc1n[nH]c2nc(-c3ccc(Cl)cc3)cc(-c3c(-c4ccccc4)[nH]c4ccccc34)c12`, the zone of inhibition at 500 µg/mL in data set [1] was 10 mm; in data set [2], 10 mm; in [3], 11 mm; in [4], 8 mm; in data set [5], 10 mm; in [6] it was 10 mm. Further, the zone of inhibition at 500 µg/mL in [7] worked out at 14 mm; in data set [8], 8 mm. In addition, the “inhibition (INH)” value in data set [9] is “Active”.
As to `Cc1ccc2[nH]c(-c3ccccc3)c(-c3cc(-c4ccccc4)nc4nc[nH]c(=O)c34)c2c1`, the zone of inhibition at 500 µg/mL in [1] is 8 mm; in data set [2], 5 mm; in [3], 10 mm; in [4] it was 10 mm; in [5], 9 mm; in [6], 9 mm. Further, the zone of inhibition at 500 µg/mL in data set [7] was determined as 6 mm; in [8] it was 10 mm.
In the case of `Cc1ccc(-c2cc(-c3c(-c4ccccc4)[nH]c4ccc(C)cc34)c3c(N)ncnc3n2)cc1`, the zone of inhibition at 500 µg/mL was 8 mm in data set [1]; 5 mm in [2]; 5 mm in data set [3]; 5 mm in data set [4]; 10 mm in [5]; 6 mm in data set [6]. For the same compound, the figures for the zone of inhibition at 500 µg/mL in data set [7] and in data set [8] were 10 mm and 5 mm, respectively.
On to `OC(Cn1cncn1)(Cn1cncn1)c1ccc(F)cc1F` [FLUCONAZOLE], for which the zone of inhibition at 500 µg/mL in data set [1], in [3], in data set [5] and in data set [8] was 14 mm throughout.
Turning to `Cc1ccc(-c2cc(-c3c(-c4ccccc4)[nH]c4ccccc34)c3c(=O)[nH]cnc3n2)cc1`, the zone of inhibition at 500 µg/mL in data set [1] stood at 6 mm; in data set [2] it was 10 mm; in [3] it was 5 mm; in [4], 10 mm; in [5], 6 mm; in data set [6] it was 11 mm. Further, the zone of inhibition at 500 µg/mL in data set [7] is 8 mm; in [8], 10 mm.
Take `O=c1[nH]cnc2nc(-c3ccc(Cl)cc3)cc(-c3c(-c4ccccc4)[nH]c4ccccc34)c12`: the zone of inhibition at 500 µg/mL in data set [1] is 10 mm; in [2] it was 10 mm; in data set [3], 11 mm; in [4] it was 2 mm; in data set [5], 10 mm; in data set [6] it was 8 mm. In addition, the zone of inhibition at 500 µg/mL is 10 mm in [7] and 11 mm in [8].
With `CN[C@@H]1[C@H](O[C@H]2[C@H](O[C@H]3[C@H](O)[C@@H](O)[C@H](N=C(N)N)[C@@H](O)[C@@H]3N=C(N)N)O[C@@H](C)[C@]2(O)C=O)O[C@@H](CO)[C@H](O)[C@H]1O` [STREPTOMYCIN], the zone of inhibition at 500 µg/mL in [2], in data set [4], in data set [6] and in data set [7] was 13 mm in each case.
`O=c1[nH]cnc2nc(-c3ccccc3)cc(-c3c(-c4ccccc4)[nH]c4ccccc34)c12`: the zone of inhibition at 500 µg/mL was determined as 10 mm in [1]; 10 mm in data set [2]; 11 mm in data set [3]; 10 mm in [4]; 8 mm in data set [5]; 10 mm in data set [6]. In addition, the results for the zone of inhibition at 500 µg/mL in data set [7] and in data set [8] were 2 mm and 8 mm, respectively. Moreover, in [9], the “inhibition (INH)” value is “Active”.
Regarding `Cc1ccc2[nH]c(-c3ccccc3)c(-c3cc(-c4ccccc4)nc4ncnc(N)c34)c2c1`, the zone of inhibition at 500 µg/mL came out at 6 mm in data set [1]; 8 mm in data set [2]; 11 mm in data set [3]; 5 mm in data set [4]; 8 mm in data set [5]; 6 mm in data set [6]. Further, the zone of inhibition at 500 µg/mL in [7] and in [8] was 10 mm each time.
`Nc1ncnc2nc(-c3ccccc3)cc(-c3c(-c4ccccc4)[nH]c4ccccc34)c12`: the zone of inhibition at 500 µg/mL in [1] came out at 9 mm; in [2], 5 mm; in data set [3], 10 mm; in data set [4], 9 mm; in data set [5] it was 10 mm; in [6], 10 mm. Further, the zone of inhibition at 500 µg/mL stood at 10 mm in data set [7] and 5 mm in data set [8].
For `Nc1n[nH]c2nc(-c3ccccc3)cc(-c3c(-c4ccccc4)[nH]c4ccc(Cl)cc34)c12`, the zone of inhibition at 500 µg/mL in [1] stood at 10 mm; in data set [2], 8 mm; in data set [3] it was 10 mm; in [4] it was 5 mm; in data set [5] it was 5 mm; in [6], 13 mm. Besides, the results for the zone of inhibition at 500 µg/mL in data set [7] and in data set [8] were 12 mm and 14 mm, respectively.
Consider `Cc1ccc(-c2cc(-c3c(-c4ccccc4)[nH]c4ccc(Cl)cc34)c3c(N)ncnc3n2)cc1`, for which the zone of inhibition at 500 µg/mL in [1] was determined as 5 mm; in data set [2], 9 mm; in [3] it was 10 mm; in data set [4] it was 9 mm; in data set [5] it was 8 mm; in [6] it was 9 mm. In addition, the zone of inhibition at 500 µg/mL is 10 mm in [7] and 4 mm in [8].
On to `Nc1ncnc2nc(-c3ccc(Cl)cc3)cc(-c3c(-c4ccccc4)[nH]c4ccc(Cl)cc34)c12`, for which the zone of inhibition at 500 µg/mL amounted to 8 mm in [1]; 11 mm in [2]; 12 mm in [3]; 11 mm in [4]; 8 mm in data set [5]; 10 mm in data set [6]. The zone of inhibition at 500 µg/mL worked out at 12 mm in data set [7] and 8 mm in [8].
Regarding `Cc1ccc(-c2cc(-c3c(-c4ccccc4)[nH]c4ccccc34)c3c(N)ncnc3n2)cc1`, the zone of inhibition at 500 µg/mL stood at 10 mm in data set [1]; 10 mm in data set [2]; 8 mm in data set [3]; 10 mm in [4]; 10 mm in [5]; 11 mm in data set [6]. For the same compound, the zone of inhibition at 500 µg/mL in [7] was determined as 11 mm; in [8], 8 mm.
